Ends that are not written are not given here.

This test relates to washed platelets. Put plainly: ADP-induced platelet aggregation (light transmission). The class given is cell-based. Particulars: 10 μM ADP, 1.67 mg/ml fibrinogen, washed human platelets. The protocol: Measurement of platelet aggregation—Platelet aggregation was measured by the increase in light transmission as described previously (Lu et al. (1993), supra; Lu et al. (1994) Biochem. J. 304, 929-936). Briefly, platelet rich plasma (PRP) was prepared from citrated human blood, obtained from healthy individuals, by centrifugation at 200×g for 15 min. Washed platelets were prepared from PRP and resuspended in adhesion/aggregation buffer (145 mM NaCl, 5 mM KCl, 1 mM MgCl2, 2 mM CaCl2, 10 mM glucose, 3.5 mg/ml BSA and 10 mM HEPES, pH 7.35) and adjusted to a count of 3×10^8/ml. Platelet aggregation (320 μl incubations) was induced with 10 μM ADP in the presence of 1.67 mg/ml fibrinogen and measured using a Payton Dual-Aggregometer linked to a chart recorder.

“KGD-dendroaspin: dendroaspin scaffold in which the native RGD motif is replaced by KGD; recombinant, expressed in E. coli (RICYNHLGTKPPTTETCQEDSCYKNIWTFDNIIRRGCGCFTPKGDMPGPYCCESDKCNL; ends and bridges not checked; cysteine pairing not given here)”: the “inhibition of ADP-induced platelet aggregation” value was “potent inhibition”.

(Values after patent publication US20020120102A1, “Use of dendroaspin as a scaffold for non-dendroaspin domains” (priority 2000, published 2002).)
